Here are results for one substance from patent publication US20230256050A1, “COMPOSITIONS, METHODS AND USES COMPRISING TENEURIN C-TERMINAL ASSOCIATED PEPTIDE -1 (TCAP-1) FOR ENHANCING MUSCLE PERFORMANCE” (priority 2016, published 2023).

The experiment has as its system hind limb muscle. The experiment can be described thus: Functional positron emission tomography (fPET) of 18F-deoxyglucose uptake. The class given is in vivo, Wistar rats. Particulars: single subcutaneous 10 nmoles/kg, 3 days later, p<0.1, n=5. The procedure: Male adult Sprague-Dawley rats (-350 g) were used for the muscle function studies. Male adult Wistar rats (-250 g) were used for the functional positron emission tomography tests. Functional Positron emission tomography (fPET) was performed using a Siemens Inveon microPET small animal PET scanner, and [18F]-2-deoxyglucose (FDG) radiotracer (IBA Molecular) and protocol was followed as previously described (Hogg et al., manuscript in review). PET scans were acquired on all of the animals 3 days post-dosing. The animals were injected intravenously with approximately 1mCi of FDG. The FDG uptake occurred under anesthesia for 90 min. Body temperature was maintained with a thermostat-regulated recirculating water heated pad. Static emission data was acquired for 20 minutes. […] The total PET counts were calculated from all voxels within the segmented volumes of interest. (Percent injected dose (%ID)) was calculated by normalizing the total counts in each tissue of interest at each time point, to the whole body total counts calculated over 1 min from the whole body max uptake time point, for each animal, during the first 90 min post FDG administration.) These images were then compiled into 3D projections, thus allowing for accurate analyses of muscle tissue. Fluorescence of the mean pixel was calibrated to volume of muscle being analyzed (mean pixel fluorescence/mm3).

Where no end group is shown, it is not given here.

Consider “TCAP-1: 41-mer peptide from the C-terminal of teneurin-1, synthesized amidated, suspended in 0.9% saline for subcutaneous injection (QQLLGTGRVQGYDGYFVLSVEQYLELSDSANNIHFMRQSEI-NH2)”, for which the “18F-DG uptake in hind limb muscles (fPET fluorescence)” value is listed as “significant increase”.
